# From patent US20150159180A1, “PROCESS FOR PRODUCTION OF C[…] USING PICHIA CARIBBICA AND ITS APPLICATION FOR QUORUM SENSING INHIBITION” (COUNCIL OF SCIENTIFIC & INDUSTRIAL RESEARCH, priority 2012, published 2015)
# Tests used:
# [1] = system: Chromobacterium violaceum mutant CV026; test: Violacein inhibition assay (qualitative), agar well; assay type: cell-based; conditions: QS signal molecule 12.5 μM, 30° C., 24 hours, FIG. 5
# Method: This assay has been designed in such a way that a zone inhibition of Violacein synthesis can be seen around the agar well containing the probable QS Inhibitor. Chromobacterium violaceum mutant CV026 is used as the test organism which has the ability to respond to a variety of signal molecules. The QS signal molecule (12.5 μM) is added to 10 ml of Luria bertani soft agar containing 100 μl of overnight culture of CV026. The soft agar is then overlayed onto basal LA plate, and a 4 mm diameter well is dug in the centre of the plate using a sterile cork borer after the overlay is set. To the agar well 75 μl of appropriate concentration of the compound under investigation was added, and the plates were incubated at 30° C. for 24 hours. The diameter of zone of Violacein inhibition was then measured. Pure xylitol from sigma was used for comparative analysis.
# [2] = system: Chromobacterium violaceum CV026; test: Violacein inhibition assay (quantitative), tube assay; assay type: cell-based
# Method: This assay is based on a similar principle to the one described above, that is the presence of any quorum sensing inhibitor will quantitatively decrease the production of the purple pigment violacein which can then be estimated colorimetrically. This is a tube assay in which 100 μl of overnight culture of CV026 was inoculated in 10 ml LB broth containing the QS signal molecule (namely C6-HSL, C8-HSL or 3-oxo-C6-HSL) at appropriate concentrations. The test compound, Pichia sp. synthesized xylitol in the present invention, was then added at increasing concentrations in a series of test tubes. The violacein produced was extracted from the culture broth by dissolution of the pigment in DMSO and separating it from the cell mass by centrifugation. The amount of xylitol required to inhibit or substantially decrease the purple pigment production could be quantitatively estimated by measuring the optical density at 570 nm. Appropriate positive and negative controls were used. All experiments were done in triplicates for checking reproducibility.
# [3] = increasing concentration of xylitol, CV026
structure (smiles),measurement,setting,value
"OC[C@@H](O)[C@H](O)[C@@H](O)CO [Pichia xylitol, xylitol]",zone of inhibition of Violacein synthesis,[1],zone of inhibition of Violacein synthesis around the agar well
same,antagonism of AHL signal and receptor interaction,"[2]; CV026 based AHL antagonism assay, C6-HSL, C8-HSL and 3-oxo-C6-HSL",able to antagonize not one but three different AHL signal and receptor interaction
same,inhibitory effect on the organism,[2]; [3],not inhibitory to the organism
same,quorum sensing signal reception,[2]; [3],severely impaired quorum sensing signal reception
same,inhibition of Violacein production,"[2]; increasing concentrations of xylitol, optical density at 570 nm, FIG. 6",could quantitatively inhibit Violacein production
